Like-named read-outs stand apart in the source and are kept apart here.

Among the targets are P-gp (Homo sapiens, UniProt P08183); Cyp-p450 2D6 (Homo sapiens, UniProt P10635); Cyp-p450 2B6 (Homo sapiens, UniProt P20813); Cyp-p450 1A2 (Homo sapiens, UniProt P05177); Cyp-p450 3A4 (Homo sapiens, UniProt P08684); Cyp-p450 2C19 (Homo sapiens, UniProt P33261); Cyp-p450 2C9 (Homo sapiens, UniProt P11712); Cyp-p450 2C8 (Homo sapiens, UniProt P10632).
The subject of data set [1] is BDBV (mucin-deleted glycoprotein, VSV pseudotype). Put plainly: microbe, parasite or virus in culture. It counts as cell-based, Bundibugyo ebolavirus. The note with it: Vesicular stomatitis virus, Vero, 24 h, read-out: EC50 Pseudotype Assays BDBV.
For data set [2], the system named is Ebola Zaire. The data set is described as follows: microbe, parasite or virus in culture. Conditions: Zaire ebolavirus, read-out: Ebola Zaire EC90.
For data set [3] the following is noted: pH 7.
For data set [4] the following is noted: microsomes, 1 h.
A further data set can be described thus: physchem. The note with it: pH 7, kinetic from dmso stock.
Data set [5] relates to MARV (full-length glycoprotein, VSV pseudotype). Put plainly: microbe, parasite or virus in culture. It counts as cell-based, Marburg marburgvirus. The note with it: Vesicular stomatitis virus, Vero, 24 h, read-out: EC50 Pseudotype Assays MARV.
The test system of data set [6] is Sudan Gulu. Put plainly: organism not typed. The note with it: HeLa, read-out: Sudan Gulu EC50.
For data set [7] the following is noted: microsomes, 1 h. This is another data set of the same source.
Data set [8] concerns SUDV (glycoprotein, VSV pseudotype). The data set is described as follows: microbe, parasite or virus in culture. It counts as cell-based, Sudan ebolavirus. Conditions: Vesicular stomatitis virus, Vero, 24 h, read-out: EC50 Pseudotype Assays SUDV.
For data set [9], the system named is Ebola Zaire. Put plainly: microbe, parasite or virus in culture. Conditions: Zaire ebolavirus, HeLa, read-out: Ebola Zaire EC50.
Data set [10] can be described thus: in vitro. The note with it: mouse.
Data set [11] in a line: in vitro. Conditions: African green monkey, Cytotox CC50.
The conditions of data set [12]: microsomes, 1 h. This is another data set of the same source.
The test system of data set [13] is EBOV (mucin-deleted glycoprotein, VSV pseudotype). The data set is described as follows: microbe, parasite or virus in culture. It counts as cell-based, Zaire ebolavirus. The note with it: Zaire ebolavirus, Vero, 24 h, read-out: EC50 Pseudotype Assays EBOV.
In data set [14] the test system is Sudan Gulu. The data set is described as follows: organism not typed. Conditions: read-out: Sudan Gulu EC50.
The test system of data set [15] is Ebola Zaire.
The test system of data set [16] is Ebola Zaire. The data set is described as follows: microbe, parasite or virus in culture. Conditions: Zaire ebolavirus, read-out: Ebola Zaire EC50.
A short description of data set [17]: in vitro. The note with it: African green monkey.
In a further data set the test system is EBOV (Mayinga). The data set is described as follows: microbe, parasite or virus in culture. It counts as cell-based, Ebola virus.
For data set [18] the following is noted: microsomes, 1 h. The source holds these as a separate data set.
Data set [19] can be described thus: in vitro. Conditions: human.
Data set [20] deals with EBOV_FL: full-length Ebola Zaire GP (VSV pseudotype). The data set is described as follows: microbe, parasite or virus in culture. The note with it: Zaire ebolavirus, Vero, 24 h, read-out: EC50 Pseudotype Assays EBOV_FL. It counts as cell-based, Zaire ebolavirus.
Data set [21] can be described thus: in vitro. Conditions: human, Caco-2.
For data set [22], the system named is Sudan Gulu.

Sequence of P-gp (P08183 whole entry): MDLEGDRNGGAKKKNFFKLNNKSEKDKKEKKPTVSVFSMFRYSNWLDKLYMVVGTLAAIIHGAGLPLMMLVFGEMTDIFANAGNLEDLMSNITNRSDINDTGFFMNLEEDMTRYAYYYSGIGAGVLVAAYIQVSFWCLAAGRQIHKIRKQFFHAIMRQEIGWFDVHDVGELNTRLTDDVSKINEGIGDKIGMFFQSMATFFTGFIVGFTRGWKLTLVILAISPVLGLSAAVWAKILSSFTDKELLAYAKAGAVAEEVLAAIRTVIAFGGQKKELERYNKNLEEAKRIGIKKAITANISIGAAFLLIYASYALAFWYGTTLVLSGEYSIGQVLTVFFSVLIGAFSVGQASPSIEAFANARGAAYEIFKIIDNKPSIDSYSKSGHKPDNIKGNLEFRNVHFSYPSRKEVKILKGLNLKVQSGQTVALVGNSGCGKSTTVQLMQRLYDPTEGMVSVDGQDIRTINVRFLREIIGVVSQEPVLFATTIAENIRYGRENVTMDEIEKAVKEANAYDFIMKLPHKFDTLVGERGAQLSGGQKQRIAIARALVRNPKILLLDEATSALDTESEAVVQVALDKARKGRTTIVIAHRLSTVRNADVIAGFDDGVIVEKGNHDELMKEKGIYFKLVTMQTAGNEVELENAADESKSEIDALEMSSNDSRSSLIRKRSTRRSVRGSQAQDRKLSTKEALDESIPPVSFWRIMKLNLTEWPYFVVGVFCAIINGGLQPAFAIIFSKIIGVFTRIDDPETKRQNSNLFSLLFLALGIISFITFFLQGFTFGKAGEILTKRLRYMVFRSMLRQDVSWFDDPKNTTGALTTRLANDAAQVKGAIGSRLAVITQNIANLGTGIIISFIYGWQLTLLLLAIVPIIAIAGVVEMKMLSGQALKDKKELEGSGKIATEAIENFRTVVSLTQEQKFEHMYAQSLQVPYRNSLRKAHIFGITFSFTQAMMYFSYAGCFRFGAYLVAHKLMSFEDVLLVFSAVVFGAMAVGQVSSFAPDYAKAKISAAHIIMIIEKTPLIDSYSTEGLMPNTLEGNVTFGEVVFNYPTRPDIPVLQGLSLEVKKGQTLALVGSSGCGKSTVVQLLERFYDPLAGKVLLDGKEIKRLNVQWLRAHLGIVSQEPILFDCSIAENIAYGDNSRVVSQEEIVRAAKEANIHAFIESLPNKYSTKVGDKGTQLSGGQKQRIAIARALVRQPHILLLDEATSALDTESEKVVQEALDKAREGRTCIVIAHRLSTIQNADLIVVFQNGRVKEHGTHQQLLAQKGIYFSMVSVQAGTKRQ
Sequence of Cyp-p450 3A4 (P08684 whole entry): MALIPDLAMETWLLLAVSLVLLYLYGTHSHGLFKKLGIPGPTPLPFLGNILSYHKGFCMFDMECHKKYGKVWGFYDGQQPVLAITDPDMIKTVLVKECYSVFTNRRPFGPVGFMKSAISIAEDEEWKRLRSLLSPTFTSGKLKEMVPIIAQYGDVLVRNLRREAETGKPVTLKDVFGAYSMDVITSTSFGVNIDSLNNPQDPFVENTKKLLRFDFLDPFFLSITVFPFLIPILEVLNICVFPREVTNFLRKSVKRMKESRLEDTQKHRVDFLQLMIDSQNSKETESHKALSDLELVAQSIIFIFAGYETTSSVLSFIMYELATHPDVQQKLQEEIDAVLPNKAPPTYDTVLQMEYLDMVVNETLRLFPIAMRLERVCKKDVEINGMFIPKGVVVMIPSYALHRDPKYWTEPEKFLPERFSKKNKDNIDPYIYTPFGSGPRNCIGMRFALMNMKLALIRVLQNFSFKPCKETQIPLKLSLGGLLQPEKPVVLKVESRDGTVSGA
Sequence of Cyp-p450 1A2 (P05177 whole entry): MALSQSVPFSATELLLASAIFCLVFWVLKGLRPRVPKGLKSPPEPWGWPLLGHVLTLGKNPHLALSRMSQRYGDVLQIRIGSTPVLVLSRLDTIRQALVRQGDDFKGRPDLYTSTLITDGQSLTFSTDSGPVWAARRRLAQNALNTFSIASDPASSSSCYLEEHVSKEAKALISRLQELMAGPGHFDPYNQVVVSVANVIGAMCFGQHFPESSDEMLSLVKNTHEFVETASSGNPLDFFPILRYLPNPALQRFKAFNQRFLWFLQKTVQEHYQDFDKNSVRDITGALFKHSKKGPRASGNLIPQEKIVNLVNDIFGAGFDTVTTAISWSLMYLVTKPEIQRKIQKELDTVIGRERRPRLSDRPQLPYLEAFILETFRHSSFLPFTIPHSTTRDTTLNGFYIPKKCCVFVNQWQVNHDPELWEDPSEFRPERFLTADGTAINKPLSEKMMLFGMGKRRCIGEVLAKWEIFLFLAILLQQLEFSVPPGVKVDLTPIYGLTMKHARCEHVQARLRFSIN
Sequence of Cyp-p450 2C19 (P33261 whole entry): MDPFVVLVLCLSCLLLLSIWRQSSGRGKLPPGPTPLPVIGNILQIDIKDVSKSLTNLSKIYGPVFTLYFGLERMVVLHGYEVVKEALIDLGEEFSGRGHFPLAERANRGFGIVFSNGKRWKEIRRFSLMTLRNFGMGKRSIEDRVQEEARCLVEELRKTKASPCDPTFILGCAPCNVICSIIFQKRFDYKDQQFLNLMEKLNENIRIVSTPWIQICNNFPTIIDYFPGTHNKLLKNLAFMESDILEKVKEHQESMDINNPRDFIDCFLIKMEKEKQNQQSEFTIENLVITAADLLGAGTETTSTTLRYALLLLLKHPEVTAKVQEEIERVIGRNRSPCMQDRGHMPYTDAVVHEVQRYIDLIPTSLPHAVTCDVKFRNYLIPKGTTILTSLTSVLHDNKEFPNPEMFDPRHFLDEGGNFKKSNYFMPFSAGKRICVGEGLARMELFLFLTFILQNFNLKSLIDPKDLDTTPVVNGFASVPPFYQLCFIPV
Sequence of Cyp-p450 2D6 (P10635 whole entry): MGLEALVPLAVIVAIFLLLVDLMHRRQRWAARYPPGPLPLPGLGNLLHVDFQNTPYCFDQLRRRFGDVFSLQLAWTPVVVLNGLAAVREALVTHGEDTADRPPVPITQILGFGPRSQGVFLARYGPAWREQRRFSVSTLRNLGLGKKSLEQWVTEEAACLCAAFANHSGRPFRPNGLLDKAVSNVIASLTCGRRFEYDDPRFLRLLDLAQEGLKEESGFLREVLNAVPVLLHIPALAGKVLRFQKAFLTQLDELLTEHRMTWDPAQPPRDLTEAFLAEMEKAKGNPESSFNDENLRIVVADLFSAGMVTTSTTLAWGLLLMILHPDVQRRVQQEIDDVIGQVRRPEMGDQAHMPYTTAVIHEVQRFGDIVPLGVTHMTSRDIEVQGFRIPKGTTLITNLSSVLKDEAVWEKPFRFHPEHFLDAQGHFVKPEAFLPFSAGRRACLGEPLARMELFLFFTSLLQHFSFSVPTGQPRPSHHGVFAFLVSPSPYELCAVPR
Sequence of Cyp-p450 2C9 (P11712 whole entry): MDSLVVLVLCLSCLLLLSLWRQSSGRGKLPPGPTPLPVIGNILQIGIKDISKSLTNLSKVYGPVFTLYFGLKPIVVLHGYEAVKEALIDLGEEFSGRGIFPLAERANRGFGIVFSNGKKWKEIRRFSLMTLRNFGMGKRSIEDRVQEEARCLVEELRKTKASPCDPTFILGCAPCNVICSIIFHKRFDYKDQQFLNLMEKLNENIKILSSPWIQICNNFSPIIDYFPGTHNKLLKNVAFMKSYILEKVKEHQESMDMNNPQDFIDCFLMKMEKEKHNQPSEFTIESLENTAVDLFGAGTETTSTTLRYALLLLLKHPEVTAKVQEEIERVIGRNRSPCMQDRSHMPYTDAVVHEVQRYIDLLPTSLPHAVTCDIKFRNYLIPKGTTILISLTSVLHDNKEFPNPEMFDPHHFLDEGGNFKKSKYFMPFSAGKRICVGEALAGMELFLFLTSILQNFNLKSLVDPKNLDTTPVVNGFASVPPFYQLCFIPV
Sequence of Cyp-p450 2B6 (P20813 whole entry): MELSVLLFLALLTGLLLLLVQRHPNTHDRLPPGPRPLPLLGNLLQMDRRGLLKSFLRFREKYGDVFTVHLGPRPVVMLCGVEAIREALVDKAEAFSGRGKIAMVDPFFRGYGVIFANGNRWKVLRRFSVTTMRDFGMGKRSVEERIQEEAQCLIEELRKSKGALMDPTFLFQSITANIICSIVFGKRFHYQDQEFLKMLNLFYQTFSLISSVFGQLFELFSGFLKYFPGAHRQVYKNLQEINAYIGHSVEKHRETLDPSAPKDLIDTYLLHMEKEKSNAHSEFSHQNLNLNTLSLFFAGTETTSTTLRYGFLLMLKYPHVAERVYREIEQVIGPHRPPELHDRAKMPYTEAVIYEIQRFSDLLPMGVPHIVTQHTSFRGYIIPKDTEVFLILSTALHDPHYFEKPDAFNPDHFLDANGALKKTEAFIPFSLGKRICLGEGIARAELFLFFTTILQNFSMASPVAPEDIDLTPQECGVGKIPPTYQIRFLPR
Sequence of Cyp-p450 2C8 (P10632 whole entry): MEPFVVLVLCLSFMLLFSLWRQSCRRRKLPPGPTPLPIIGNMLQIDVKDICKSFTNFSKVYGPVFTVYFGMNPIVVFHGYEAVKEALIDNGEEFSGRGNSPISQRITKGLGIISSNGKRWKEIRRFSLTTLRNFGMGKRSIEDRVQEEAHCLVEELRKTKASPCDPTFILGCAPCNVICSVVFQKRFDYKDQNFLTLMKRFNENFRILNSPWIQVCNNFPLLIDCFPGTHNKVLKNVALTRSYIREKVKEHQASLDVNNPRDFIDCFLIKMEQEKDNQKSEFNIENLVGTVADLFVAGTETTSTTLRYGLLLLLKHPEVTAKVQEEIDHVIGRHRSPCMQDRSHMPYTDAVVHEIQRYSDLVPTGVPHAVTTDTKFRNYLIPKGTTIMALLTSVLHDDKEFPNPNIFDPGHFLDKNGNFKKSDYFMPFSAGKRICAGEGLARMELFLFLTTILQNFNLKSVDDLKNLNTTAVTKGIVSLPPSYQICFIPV

For the molecule `C[C@]12CC3CC(C(=O)N[C@H]4CC[C@@H](N)CC4)(C1)C[C@@](c1ccccc1)(C3)C2.Cl` [Example B2], the “P-gp substrate ID Caco-2 Permeability (+Verapamil) Paap Mean A > B” value at P-gp was 6.19 10^−6 cm s^−1. The “P-gp substrate ID Caco-2 Permeability (+Verapamil) Paap Mean B > A” value at P-gp is given as 6.83 10^−6 cm s^−1. In addition, the EC50 in data set [1] was determined as 67 nM; in data set [5] it was 6450 nM; in the data set on Sudan Gulu [6] it was 180 nM; in [8], 277 nM; in the data set with Ebola Zaire [9], 440 nM; in data set [13], 15 nM. The EC50 in the data set with Sudan Gulu [14] was 1100 nM; in the data set with Ebola Zaire [16], 240 nM; in the data set on EBOV (Mayinga) (Zaire ebolavirus, Vero), 240 nM; in data set [20] it was 10 nM. Also, in the data set on Ebola Zaire [2], the 90% effect concentration (EC90) amounted to 800 nM. The molecule further displayed a Turbidimetric solubility in data set [3] above 500 µM. In addition, in data set [4], the “Liver Microsome Stability % Remaining after 60 Minutes, Monkey” value worked out at 85%. Besides, the half-maximal inhibitory concentration (IC50) against Cyp-p450 2D6 was above 100000 nM; at Cyp-p450 2B6, above 100000 nM; against Cyp-p450 1A2, above 100000 nM; on Cyp-p450 3A4 (CYP Inhibition 3A4 (Midazolam)), above 100000 nM; at Cyp-p450 3A4 (CYP Inhibition 3A4 (Testosterone)) it was 88000 nM; at Cyp-p450 2C19, 51000 nM. For the same molecule, the half-inhibitory concentration (IC50) on Cyp-p450 2C9 and against Cyp-p450 2C8 was above 100000 nM each time. In the data set “physchem”, this molecule showed a solubility above 500 µM. In data set [7], the “Liver Microsome Stability % Remaining after 60 Minutes, Human” value is given as 100%. Moreover, the fraction unbound in the data set “in vitro [10]” is 0.011; in the data set “in vitro [19]” it was 0.039. The CC50 in “in vitro [11]” was determined as 19100 nM; in the data set “in vitro [17]” it was 67600 nM. The “Liver Microsome Stability % Remaining after 60 Minutes, Mouse” value in data set [12] worked out at 71%. Moreover, the “Ebola Zaire SI (CC50/EC90)” value with Ebola Zaire [15] is reported as 72.5. Also, in the data set on EBOV (Mayinga), the “SI50 (CC50/EC50)” value came out at 282. Besides, the “Liver Microsome Stability % Remaining after 60 Minutes, Guinea Pig” value in data set [18] amounted to 100%. In addition, the Papp A→B in the data set “in vitro [21]” came out at 3.07 ×10⁻⁶ cm/s. In the data set “in vitro [21]”, this molecule returned an apparent permeability from basolateral to apical (Papp B→A) of 7.86 ×10⁻⁶ cm/s. The efflux ratio in “in vitro [21]” was determined as 2.71.

As to `CC1(C)CN(C(=O)C23CC4C[C@@](C)(C2)C[C@](c2ccccc2)(C4)C3)CCC1N` (some centres unmarked) [Example B8], the EC50 in [1] was found to be 84 nM; in data set [8], 58 nM; in data set [13], 12 nM; in the data set with Sudan Gulu [14] it was 130 nM; in data set [20], 50 nM. Further, the “Liver Microsome Stability % Remaining after 60 Minutes, Monkey” value in data set [4] was determined as 30%. In addition, the “Liver Microsome Stability % Remaining after 60 Minutes, Human” value in data set [7] stood at 76%. In “in vitro [11]”, this molecule came in with a CC50 of 12400 nM. Further, the “Liver Microsome Stability % Remaining after 60 Minutes, Mouse” value in data set [12] was found to be 47%. Besides, the “Sudan Gulu SI (CC50/EC50)” value in the data set on Sudan Gulu [22] turned out to be 128. Also, in data set [18], the “Liver Microsome Stability % Remaining after 60 Minutes, Guinea Pig” value is listed as 56%.

A word on the EC50: it is the concentration at which the effect is half-maximal. As a reminder, the EC90 is the concentration at which the effect reaches the 90% level. As usually defined, the IC50 is the concentration that inhibits the measured activity by half. In general, solubility refers to how much of the substance goes into solution per volume. As a reminder, the fraction unbound is the share of the substance not bound to proteins or other matrix. As a reminder, the Papp A→B is the apparent permeability from the apical to the basolateral side of a cell layer. Usually Papp B→A stands for the apparent permeability from the basolateral to the apical side of a cell layer. What is called efflux ratio is the permeability from basolateral to apical divided by that in the opposite direction, in the common usage.

Values taken from patent US11548893B2 (priority 2017, dated 2023).
